Data reported in PubChem BioAssay AID1963848 (Molecular Pharmacology Branch, DTP, NCI, 2024).

System: 379773-124-R-J2-PDC spheroid viability
Assay: Anticancer human tumor 379773-124-R-J2-PDC patient-derived endometrial carcinoma cell line growth inhibition [POLQ]
Conditions: spheroids with HUVEC and MSC; for IC50: curve of first compound; for viability, T/C: stronger effect = lower value; active = viability on the fitted dose curve at most 10% of control; inactive = the rest
Outline: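 Three-cell-type spheroids modelling solid tumor plus stroma served as the readout system; POL inhibitors were tested individually and in combination, concentration ranges set by clinical Cmax where known.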

[1] = second compound 0.0316 µM, first compound 0.00316 µM
[2] = second compound 0.0316 µM, first compound 0.01 µM
[3] = second compound 0.0316 µM, first compound 0.0316 µM
[4] = second compound 0.0316 µM, first compound 0.1 µM
[5] = second compound 0.0316 µM, first compound 0.316 µM
[6] = second compound 0.0316 µM, first compound 1 µM
[7] = second compound 0.1 µM, first compound 0.00316 µM
[8] = second compound 0.1 µM, first compound 0.01 µM
[9] = second compound 0.1 µM, first compound 0.0316 µM
[10] = second compound 0.1 µM, first compound 0.1 µM
[11] = second compound 0.1 µM, first compound 0.316 µM
[12] = second compound 0.1 µM, first compound 1 µM
[13] = second compound 0.316 µM, first compound 0.00316 µM
[14] = second compound 0.316 µM, first compound 0.01 µM
[15] = second compound 0.316 µM, first compound 0.0316 µM
[16] = second compound 0.316 µM, first compound 0.1 µM
[17] = second compound 0.316 µM, first compound 0.316 µM
[18] = second compound 0.316 µM, first compound 1 µM
[19] = second compound 1 µM, first compound 0.00316 µM
[20] = second compound 1 µM, first compound 0.01 µM
[21] = second compound 1 µM, first compound 0.0316 µM
[22] = second compound 1 µM, first compound 0.1 µM
[23] = second compound 1 µM, first compound 0.316 µM
[24] = second compound 1 µM, first compound 1 µM
[25] = second compound 3.16 µM, first compound 0.00316 µM
[26] = second compound 3.16 µM, first compound 0.01 µM
[27] = second compound 3.16 µM, first compound 0.0316 µM
[28] = second compound 3.16 µM, first compound 0.1 µM
[29] = second compound 3.16 µM, first compound 0.316 µM
[30] = second compound 3.16 µM, first compound 1 µM
[31] = second compound 10 µM, first compound 0.00316 µM
[32] = second compound 10 µM, first compound 0.01 µM
[33] = second compound 10 µM, first compound 0.0316 µM
[34] = second compound 10 µM, first compound 0.1 µM
[35] = second compound 10 µM, first compound 0.316 µM
[36] = second compound 10 µM, first compound 1 µM
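Note: spheroids exposed to drugs for seven days before readout.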
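Throughout, for viability, T/C: percent viability relative to DMSO vehicle control taken as 100%.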

C=CCn1c(=O)c2cnc(Nc3ccc(N4CCN(C)CC4)cc3)nc2n1-c1cccc(C(C)(C)O)n1 + COC1C(OC(N)=O)C(O)C(Oc2ccc3c(O)c(NC(=O)c4ccc(O)c(CC=C(C)C)c4)c(=O)oc3c2C)OC1(C)C
453 nM: IC50 (second compound 0.0316 µM)
472 nM: IC50 (second compound 3.16 µM)
436 nM: IC50 (second compound 10 µM)
inactive: viability, T/C [1] 84.1% | viability, T/C [2] 74.3% | viability, T/C [3] 89.5% | viability, T/C [4] 79.7% | viability, T/C [5] 71.9% | viability, T/C [7] 82.8% | viability, T/C [8] 73.7% | viability, T/C [9] 85.3% | viability, T/C [10] 81.7% | viability, T/C [11] 66.2% | viability, T/C [13] 87.9% | viability, T/C [14] 74.8% | viability, T/C [15] 88.3% | viability, T/C [16] 88% | viability, T/C [17] 55.3% | viability, T/C [19] 80.6% | viability, T/C [20] 89.8% | viability, T/C [21] 78.3% | viability, T/C [22] 88.8% | viability, T/C [23] 78.2% | viability, T/C [25] 85.6% | viability, T/C [26] 86.9% | viability, T/C [27] 79.6% | viability, T/C [28] 77.5% | viability, T/C [29] 74.8% | viability, T/C [31] 77.5% | viability, T/C [32] 66.6% | viability, T/C [33] 103% | viability, T/C [34] 81% | viability, T/C [35] 68.6%
354 nM: IC50 (second compound 0.316 µM)
487 nM: IC50 (second compound 1 µM)
425 nM: IC50 (second compound 0.1 µM)
active: viability, T/C [6] 1.84% | viability, T/C [12] 3.04% | viability, T/C [18] 2.39% | viability, T/C [24] 2.58% | viability, T/C [30] 3.31% | viability, T/C [36] 2.21%

COc1cccc(OCCCN)c1-c1cc(Nc2cnc(C#N)cn2)n[nH]1 + Cc1cccc(N(C)C(=O)C2C(O)CCN2c2nc(C)cc(C(F)(F)F)c2C#N)c1
6.31 nM: IC50 (second compound 1 µM)
6.04 nM: IC50 (second compound 0.316 µM)
6.43 nM: IC50 (second compound 0.1 µM)
6.72 nM: IC50 (second compound 0.0316 µM)
inactive: viability, T/C [1] 87.1% | viability, T/C [2] 30.5% | viability, T/C [7] 92.8% | viability, T/C [8] 23.4% | viability, T/C [13] 85.5% | viability, T/C [14] 22.3% | viability, T/C [19] 93.4% | viability, T/C [20] 21.1% | viability, T/C [25] 84.3% | viability, T/C [26] 23.2% | viability, T/C [31] 88.8% | viability, T/C [32] 22.1%
6.03 nM: IC50 (second compound 3.16 µM)
active: viability, T/C [3] 2.41% | viability, T/C [4] 2.05% | viability, T/C [5] 1.74% | viability, T/C [6] 1.59% | viability, T/C [9] 3.34% | viability, T/C [10] 3.31% | viability, T/C [11] 2.36% | viability, T/C [12] 1.82% | viability, T/C [15] 3.19% | viability, T/C [16] 1.9% | viability, T/C [17] 1.95% | viability, T/C [18] 2.25% | viability, T/C [21] 3.23% | viability, T/C [22] 2.53% | viability, T/C [23] 2.26% | viability, T/C [24] 3% | viability, T/C [27] 3.07% | viability, T/C [28] 2.7% | viability, T/C [29] 2.36% | viability, T/C [30] 0.99% | viability, T/C [33] 4.5% | viability, T/C [34] 4.11% | viability, T/C [35] 2.59% | viability, T/C [36] 2.26%
6.19 nM: IC50 (second compound 10 µM)

O=c1[nH]cc(F)c(=O)[nH]1 + Nc1ccc(C#CCN(C(=O)Cc2ncc(C(F)(F)F)cc2C(F)(F)F)c2ccc(F)cc2)nn1
> 10000 nM: IC50 (second compound 0.0316 µM) | IC50 (second compound 0.1 µM) | IC50 (second compound 0.316 µM) | IC50 (second compound 1 µM) | IC50 (second compound 3.16 µM) | IC50 (second compound 10 µM)
inactive: viability, T/C [3] 93.1% | viability, T/C [4] 93% | viability, T/C [5] 99.6% | viability, T/C [6] 85.2% | viability, T/C (second compound 0.0316 µM, first compound 3.16 µM) 78.1% | viability, T/C (second compound 0.0316 µM, first compound 10 µM) 55.7% | viability, T/C [9] 89.2% | viability, T/C [10] 98.1% | viability, T/C [11] 95.1% | viability, T/C [12] 80.4% | viability, T/C (second compound 0.1 µM, first compound 3.16 µM) 78.8% | viability, T/C (second compound 0.1 µM, first compound 10 µM) 59.6% | viability, T/C [15] 96.1% | viability, T/C [16] 98.1% | viability, T/C [17] 98.2% | viability, T/C [18] 94.7% | viability, T/C (second compound 0.316 µM, first compound 3.16 µM) 74.4% | viability, T/C (second compound 0.316 µM, first compound 10 µM) 62% | viability, T/C [21] 92.3% | viability, T/C [22] 85.3% | viability, T/C [23] 95.3% | viability, T/C [24] 87.2% | viability, T/C (second compound 1 µM, first compound 3.16 µM) 75.9% | viability, T/C (second compound 1 µM, first compound 10 µM) 51.3% | viability, T/C [27] 94.1% | viability, T/C [28] 83% | viability, T/C [29] 91.3% | viability, T/C [30] 82.4% | viability, T/C (second compound 3.16 µM, first compound 3.16 µM) 74.1% | viability, T/C (second compound 3.16 µM, first compound 10 µM) 57.7% | viability, T/C [33] 87.4% | viability, T/C [34] 88.2% | viability, T/C [35] 93.5% | viability, T/C [36] 90.2% | viability, T/C (second compound 10 µM, first compound 3.16 µM) 63.1% | viability, T/C (second compound 10 µM, first compound 10 µM) 57.6%
